Tested on: Human alphaherpesvirus 1
Assay: In vitro antiviral activity by means of plaque-inhibition assay with monolayers of Vero cells infected with the MP strain of herpes simplex virus-1 (HSV-1)
Assay type: functional
Details: Human alphaherpesvirus 1, Vero; read-out: ED50 (the source's name)

CCCCn1cnc2c(C)nn(C3O[C@H](CO)[C@@H](O)[C@H]3O)c2c1=O (some centres undefined)
EC50: 152 µM

Cc1nn(C2O[C@H](CO)[C@@H](O)[C@H]2O)c2c(=O)n(Cc3ccc(Cl)cc3)cnc12 (some centres undefined)
EC50: 220 µM

Cc1nn(C2O[C@H](CO)[C@@H](O)[C@H]2O)c2c(=O)n(Cc3ccccc3)cnc12 (some centres undefined)
EC50: 245 µM

Cc1nn(C2O[C@H](CO)[C@@H](O)[C@H]2O)c2c(=O)n(CCC(C)C)cnc12 (some centres undefined)
EC50: 350 µM

Cc1nn(C2O[C@H](CO)[C@@H](O)[C@H]2O)c2c(=O)n(-c3ccc(Cl)cc3)cnc12 (some centres undefined)
EC50: 50 µM

Cc1nn(C2O[C@H](CO)[C@@H](O)[C@H]2O)c2c(=O)n(CCc3ccccc3)cnc12 (some centres undefined)
EC50: 174 µM

O=c1[nH]c(=O)n([C@H]2C[C@H](O)[C@@H](CO)O2)cc1I [IDOXURIDINE]
EC50: 1.2 µM

Cc1ccc(-n2cnc3c(C)nn(C4O[C@H](CO)[C@@H](O)[C@H]4O)c3c2=O)cc1 (some centres undefined)
EC50: 280 µM

COc1ccc(Cn2cnc3c(C)nn(C4O[C@H](CO)[C@@H](O)[C@H]4O)c3c2=O)cc1 (some centres undefined)
EC50: 49.5 µM
